From patent EP2193713A1, “Method for fighting animal pests without damaging pollinating insects” (Bayer CropScience AG, priority 2008, dated 2010)
Like-named read-outs stand apart in the source and are kept apart here.

Tests used:
Type in all cases: in vivo
Apis mellifera [1] = test: Tunnel test / spray application / bees: brood development (share of comb cells); conditions: for Brutentwicklung: result in words, 75 und 150 g a.s./ha
Excerpt: (§1) Der Test wurde gemäß EPPO (European Plant Protection Organisation) Leitlinie 170 wie folgt durchgeführt:
Über alle Waben eines Bienenstocks wird der jeweilige Anteil an Zellen bestimmt, der durch Pollen, Nektar, Eier, Larven oder Puppen belegt ist bzw. leer ist. […]

Apis mellifera [2] = test: Tunnel test / spray application / bees: foraging activity
Excerpt: as §1
Während einer Minute werden in einem abgegrenzten Bereich von 2 x 1 m^2 die Bienen gezählt, die auf Blüten absitzen. Tabelle 3 (siehe auch Figur 3)

Apis mellifera [3] = test: Tent test / drench application / bees: foraging activity; conditions: for Aktivität der Nahrungssuche, Zahl der Bienen / min / 4 m^2: 20 mg a.s./pl.
Excerpt: Der Test wurde wie folgt durchgeführt:

Apis mellifera [4] = conditions: for Zahl toter Arbeiterbienen: 20 mg a.s./pl.
Excerpt: Die Mortalität von Arbeiterbienen vor dem Bienenstock wird mittels einer Falle für tote Bienen (dead bee trap) bestimmt. Die Falle besteht aus Maschendraht und ist vor dem Bienenstock angebracht. Einzelne, lebende Bienen können die Maschen des Drahts passieren, der Transport toter Bienen durch die Maschen ist nicht möglich, weswegen tote Bienen sich in der Falle ansammeln. Tabelle 1 (siehe auch Figur 1)

Bombus terrestris [5] = test: Tent test / drench application / bumblebees: pollination activity on tomato; conditions: for Zahl der Blüten: markierte Blüten / Zahl der Blüten: offene Blüten: 20 mg a.s./pl.
Excerpt: (§2) Der Versuch wurde wie folgt durchgeführt:
Bei Tomaten kommt es durch den Besuch von Hummeln zu einer Farbveränderung der Staubgefäße (markierte Blüten). Es wurde die Zahl offener und markierter Blüten bestimmt. Tabelle 8 (siehe auch Figur 8)

Bombus terrestris [6] = test: Tent test / drench application / bumblebees: flight activity at the hive; conditions: for Flugaktivität am Stock, Zahl der Hummeln / 10 min: 20 mg a.s./pl.
Protocol: as §2
Die Zahl der Hummeln, die im Zeitraum von 10 min in den Stock geflogen sind oder diesen verlassen haben wurde bestimmt. Tabelle 7 (siehe auch Figur 7)

[7] = 150 g a.s./ha, 27 Tage nach Applikation
[8] = result in words, 20 mg a.s. / Pflanze, 2 applications (Tag 0 und Tag 14)

With O=C1C=C(N(Cc2ccc(Cl)nc2)CC(F)F)CO1 [I-5, 4-{[(6-Chlorpyrid-3-yl)methyl](2,2-difluorethyl)amino}furan-2(5H)-on] the “Anteil an Zellen: Larven” value (Apis mellifera [1]; [7]) was 7,2%, the “Anteil an Zellen: Leer” value (Apis mellifera [1]; [7]) was 21,9% and the “Anteil an Zellen: Nektar” value (Apis mellifera [1]; [7]) was 16,4%. For the same compound, the “Anteil an Zellen: Pollen” value (Apis mellifera [1]; [7]) was 4,2%, the “Anteil an Zellen: Puppen” value (Apis mellifera [1]; [7]) was 35% and the Brutentwicklung (Apis mellifera [1]; 6 Tage nach Applikation) was “keine Änderung”. For the same compound, the Brutentwicklung (Apis mellifera [1]; 14 Tage nach Applikation) was “keine Änderung”, the Brutentwicklung (Apis mellifera [1]; 27 Tage nach Applikation) was “keine Änderung” and the “Aktivität der Nahrungssuche, Zahl der Bienen / min / m^2” value (Apis mellifera [2]; 75 g a.s./ha, 0 DAA a (09:30 Uhr)) was 25,5 Bienen / min / m^2. For the same compound, the “Aktivität der Nahrungssuche, Zahl der Bienen / min / m^2” value (Apis mellifera [2]; 75 g a.s./ha, 0 DAA c (14:15 Uhr)) was 41 Bienen / min / m^2, the “Aktivität der Nahrungssuche, Zahl der Bienen / min / m^2” value (Apis mellifera [2]; 75 g a.s./ha, 0 DAA e (17:15 Uhr)) was 42,7 Bienen / min / m^2 and the “Aktivität der Nahrungssuche, Zahl der Bienen / min / m^2” value (Apis mellifera [2]; 75 g a.s./ha, 1 DAA b (15:30 Uhr)) was 18,8 Bienen / min / m^2. For the same compound, the “Aktivität der Nahrungssuche, Zahl der Bienen / min / m^2” value (Apis mellifera [2]; 75 g a.s./ha, 2 DAA) was 33,3 Bienen / min / m^2, the “Aktivität der Nahrungssuche, Zahl der Bienen / min / m^2” value (Apis mellifera [2]; 75 g a.s./ha, 3 DAA) was 40,3 Bienen / min / m^2 and the “Aktivität der Nahrungssuche, Zahl der Bienen / min / m^2” value (Apis mellifera [2]; 75 g a.s./ha, 6 DAA) was 37,8 Bienen / min / m^2. The “Aktivität der Nahrungssuche, Zahl der Bienen / min / m^2” value (Apis mellifera [2]; 75 g a.s./ha, -1 DAA (before application)) was 27,3 Bienen / min / m^2, the “Aktivität der Nahrungssuche, Zahl der Bienen / min / m^2” value (Apis mellifera [2]; 75 g a.s./ha, -2 DAA (before application)) was 34,8 Bienen / min / m^2 and the “Aktivität der Nahrungssuche, Zahl der Bienen / min / m^2” value (Apis mellifera [2]; 75 g a.s./ha, -3 DAA (before application)) was 26,5 Bienen / min / m^2. For the same compound, the “Aktivität der Nahrungssuche, Zahl der Bienen / min / m^2” value (Apis mellifera [2]; 150 g a.s./ha, 0 DAA a (09:30 Uhr)) was 28,3 Bienen / min / m^2, the “Aktivität der Nahrungssuche, Zahl der Bienen / min / m^2” value (Apis mellifera [2]; 150 g a.s./ha, 0 DAA c (14:15 Uhr)) was 40,2 Bienen / min / m^2 and the “Aktivität der Nahrungssuche, Zahl der Bienen / min / m^2” value (Apis mellifera [2]; 150 g a.s./ha, 0 DAA e (17:15 Uhr)) was 39 Bienen / min / m^2. The “Aktivität der Nahrungssuche, Zahl der Bienen / min / m^2” value (Apis mellifera [2]; 150 g a.s./ha, 1 DAA b (15:30 Uhr)) was 19,2 Bienen / min / m^2, the “Aktivität der Nahrungssuche, Zahl der Bienen / min / m^2” value (Apis mellifera [2]; 150 g a.s./ha, 2 DAA) was 35,7 Bienen / min / m^2 and the “Aktivität der Nahrungssuche, Zahl der Bienen / min / m^2” value (Apis mellifera [2]; 150 g a.s./ha, 3 DAA) was 39,3 Bienen / min / m^2. For the same compound, the “Aktivität der Nahrungssuche, Zahl der Bienen / min / m^2” value (Apis mellifera [2]; 150 g a.s./ha, 6 DAA) was 37,5 Bienen / min / m^2, the “Aktivität der Nahrungssuche, Zahl der Bienen / min / m^2” value (Apis mellifera [2]; 150 g a.s./ha, -1 DAA (before application)) was 26,3 Bienen / min / m^2 and the “Aktivität der Nahrungssuche, Zahl der Bienen / min / m^2” value (Apis mellifera [2]; 150 g a.s./ha, -2 DAA (before application)) was 34,2 Bienen / min / m^2. For the same compound, the “Aktivität der Nahrungssuche, Zahl der Bienen / min / m^2” value (Apis mellifera [2]; 150 g a.s./ha, -3 DAA (before application)) was 27 Bienen / min / m^2, the “Aktivität der Nahrungssuche” value (Apis mellifera [2]; result in words, tunnel test, spray, I-5 75 und 150 g a.s./ha, Thiamethoxam 50 g a.s./ha directly after application) was “keine Änderung” and the “Aktivität der Nahrungssuche, Zahl der Bienen / min / 4 m^2” value (Apis mellifera [3]; 5 DAA) was 26 Bienen / min / 4 m^2. For the same compound, the “Aktivität der Nahrungssuche, Zahl der Bienen / min / 4 m^2” value (Apis mellifera [3]; 6 DAA b (14:30 Uhr)) was 73 Bienen / min / 4 m^2, the “Aktivität der Nahrungssuche, Zahl der Bienen / min / 4 m^2” value (Apis mellifera [3]; 7 DAA) was 21 Bienen / min / 4 m^2 and the “Aktivität der Nahrungssuche, Zahl der Bienen / min / 4 m^2” value (Apis mellifera [3]; 8 DAA) was 70 Bienen / min / 4 m^2. The “Aktivität der Nahrungssuche, Zahl der Bienen / min / 4 m^2” value (Apis mellifera [3]; 9 DAA) was 41 Bienen / min / 4 m^2, the “Aktivität der Nahrungssuche, Zahl der Bienen / min / 4 m^2” value (Apis mellifera [3]; 11 DAA) was 31 Bienen / min / 4 m^2 and the “Aktivität der Nahrungssuche, Zahl der Bienen / min / 4 m^2” value (Apis mellifera [3]; 13 DAA) was 86 Bienen / min / 4 m^2. For the same compound, the “Aktivität der Nahrungssuche, Zahl der Bienen / min / 4 m^2” value (Apis mellifera [3]; 15 DAA) was 43 Bienen / min / 4 m^2, the “Aktivität der Nahrungssuche, Zahl der Bienen / min / 4 m^2” value (Apis mellifera [3]; 16 DAA) was 51 Bienen / min / 4 m^2 and the “Aktivität der Nahrungssuche, Zahl der Bienen / min / 4 m^2” value (Apis mellifera [3]; 17 DAA) was 98 Bienen / min / 4 m^2. The “Aktivität der Nahrungssuche, Zahl der Bienen / min / 4 m^2” value (Apis mellifera [3]; 18 DAA) was 71 Bienen / min / 4 m^2, the “Aktivität der Nahrungssuche” value (Apis mellifera [3]; result in words, tent test, drench, I-5 20 mg a.s. / Pflanze, Thiamethoxam 10 mg a.s. / Pflanze (13 Tage nach Applikation)) was “keine Änderung” and the “Zahl toter Arbeiterbienen” value (Apis mellifera [4]; 6 DAA a (9:30 Uhr)) was 8. The “Zahl toter Arbeiterbienen” value (Apis mellifera [4]; 6 DAA b (14:30 Uhr)) was 2, the “Zahl toter Arbeiterbienen” value (Apis mellifera [4]; 7 DAA) was 8 and the “Zahl toter Arbeiterbienen” value (Apis mellifera [4]; 8 DAA) was 0. The “Zahl toter Arbeiterbienen” value (Apis mellifera [4]; 9 DAA) was 0, the “Zahl toter Arbeiterbienen” value (Apis mellifera [4]; 10 DAA) was 7 and the “Zahl toter Arbeiterbienen” value (Apis mellifera [4]; 11 DAA) was 2. The “Zahl toter Arbeiterbienen” value (Apis mellifera [4]; 14 DAA) was 1, the “Zahl toter Arbeiterbienen” value (Apis mellifera [4]; 16 DAA) was 1 and the “Zahl toter Arbeiterbienen” value (Apis mellifera [4]; 18 DAA) was 2. The “Mortalität von Arbeiterbienen vor dem Bienenstock” value (Apis mellifera [4]; result in words, tent test, drench, I-5 20 mg a.s. / Pflanze, Thiamethoxam 10 mg a.s. / Pflanze) was “keine Mortalität”, the “Zahl der Blüten: markierte Blüten” value (Bombus terrestris [5]; DAA 13 after first application) was 59,4 and the “Zahl der Blüten: offene Blüten” value (Bombus terrestris [5]; DAA 13 after first application) was 67,3. For the same compound, the “Zahl der Blüten: markierte Blüten” value (Bombus terrestris [5]; DAA 22 after first application) was 53,7, the “Zahl der Blüten: offene Blüten” value (Bombus terrestris [5]; DAA 22 after first application) was 59,3 and the “Bestäubungsaktivität der Hummeln” value (Bombus terrestris [5]; [8]) was “keine Änderung”. The “Flugaktivität am Stock, Zahl der Hummeln / 10 min” value (Bombus terrestris [6]; 0 DAA) was 9 Hummeln / 10 min, the “Flugaktivität am Stock, Zahl der Hummeln / 10 min” value (Bombus terrestris [6]; 6 DAA after first application) was 11 Hummeln / 10 min and the “Flugaktivität am Stock, Zahl der Hummeln / 10 min” value (Bombus terrestris [6]; 8 DAA after first application) was 15 Hummeln / 10 min. The “Flugaktivität am Stock, Zahl der Hummeln / 10 min” value (Bombus terrestris [6]; 13 DAA after first application) was 11 Hummeln / 10 min, the “Flugaktivität am Stock, Zahl der Hummeln / 10 min” value (Bombus terrestris [6]; 20 DAA after first application) was 12 Hummeln / 10 min and the “Flugaktivität am Stock, Zahl der Hummeln / 10 min” value (Bombus terrestris [6]; 23 DAA after first application) was 14 Hummeln / 10 min. The “Flugaktivität am Stock, Zahl der Hummeln / 10 min” value (Bombus terrestris [6]; 27 DAA after first application) was 11 Hummeln / 10 min, the “Flugaktivität am Stock, Zahl der Hummeln / 10 min” value (Bombus terrestris [6]; 34 DAA after first application) was 6 Hummeln / 10 min and the “Flugaktivität am Stock, Zahl der Hummeln / 10 min” value (Bombus terrestris [6]; -1 DAA (before first application)) was 13 Hummeln / 10 min. For the same compound, the “Flugaktivität der Hummeln” value (Bombus terrestris [6]; [8]) was “keine Änderung”.
